Measured values published in US6670363B1, “Azole compounds as therapeutic agents for fungal infections” (Ranbaxy Laboratories Limited, priority 2000, dated 2003).
Values after ≈ are worked out from the molar mass of the structure shown.

Columns and labels:
Format in all cases: cell-based
Cryptococcus neoformans = experiment: In vitro MIC, NCCLS M27A, Cryptococcus neoformans; parameters: MIC, C. neoformans I: unit not given beside the values; MIC, C. neoformans M 106: unit not given here; settings: for MIC, C. neoformans I: C. neoformans strain I; for MIC, C. neoformans M 106: C. neoformans strain M 106
A. fumigatus s 1008 = experiment: In vitro MIC, NCCLS M38P broth method (RPMI 1640/MOPS pH7), Aspergillus fumigatus; settings: A. fumigatus strain 1008
Candida = experiment: In vitro MIC, NCCLS M27A, Candida species; parameters: MIC, Candida albicans 1.549 / MIC, Candida albicans Y-01-19 / MIC, C. krusei 766-1 / MIC, C. krusei Q. C / MIC, Candida tropicalis ATCC / MIC, C. glabrata 90030: unit not given beside the values; MIC, Candida albicans A 26 / MIC, C. parapsilosis Q. C.: unit not given here; settings: for MIC, C. glabrata 90030: C. glabrata strain 90030; for MIC, C. krusei 766-1: C. krusei strain 766-1; for MIC, C. krusei Q. C: C. krusei strain Q. C; for MIC, C. parapsilosis Q. C.: C. parapsilosis strain Q. C.; for MIC, Candida albicans 1.549: Candida albicans strain 1.549; for MIC, Candida albicans A 26: Candida albicans strain A 26; for MIC, Candida albicans Y-01-19: Candida albicans strain Y-01-19
Histoplasma capsulatum = system: Histoplasma capsulatum

Structure (SMILES) | MIC, C. neoformans I (Cryptococcus neoformans) | MIC, C. neoformans M 106 (Cryptococcus neoformans) | MIC, A. fumigatus 1008 (A. fumigatus s 1008) | MIC, C. glabrata 90030 (Candida) | MIC, C. krusei 766-1 (Candida) | MIC, C. krusei Q. C (Candida) | MIC, C. parapsilosis Q. C. (Candida) | MIC, Candida albicans 1.549 (Candida) | MIC, Candida albicans A 26 (Candida) | MIC, Candida albicans Y-01-19 (Candida) | MIC, Candida tropicalis ATCC (Candida) | MIC, H. capsulatum (Histoplasma capsulatum)
COc1ccc(F)cc1N1CCN(c2ccc(-n3cnn(CC(O)(Cn4cncn4)c4ccc(F)cc4F)c3=O)cc2)CC1 (stereo not drawn) [Compound 59, 2-[2-(2,4-Difluorophenyl)-2-hydroxy-3-(1H-1,2,4-triazol-1-yl)propyl]-4-{4-[4-(2-methoxy-5-fluorophenyl)-1-piperazinyl]phenyl}-3-(2H,4H)-1,2,4-triazolone] | <0.03 | 0.12 | >16 | 1.00 | 4.00 | 1.00 | <0.03 | 1.00 | <0.03 | 0.50 | <0.03 | < 0.03 µg/mL
Cc1ccc(N2CCN(c3ccc(-n4cnn([C@H](C)[C@](O)(Cn5cncn5)c5ccc(F)cc5F)c4=O)cc3)CC2)c(C)c1 [Compound 19, 2-{[1R2R/1S2S]-2-(2,4-Difluorophenyl)-2-hydroxy-1-methyl-3-(1H-1,2,4-triazol-1-yl)propyl}-4-{4-[4-(2,4-dimethylphenyl)-1-piperazinyl]phenyl}-3-(2H,4H)-1,2,4-triazolone] | <0.03 | <0.03 | >16 | >16 | >16 | 0.50 | 0.06 | 1.00 | <0.03 | 1.00 | <0.03 | 0.5 µg/mL (≈ 0.832 µM)
CCc1ccccc1N1CCN(c2ccc(-n3c(C)nn([C@H](C)[C@@](O)(Cn4cncn4)c4ccc(F)cc4F)c3=O)cc2)CC1 [Compound 32, 2-{[1R2S/1S2R]-2-(2,4-Difluorophenyl)-2-hydroxy-1-methyl-3-(1H-1,2,4-triazol-1-yl)propyl}-4-{4-[4-(2-ethylphenyl)-1-piperazinyl]phenyl}-3-(2H,4H)-5-methyl-1,2,4-triazolone] | 0.50 | 0.50 | >16 | 2.00 | >16 | 4.00 | 0.50 | >16 | <0.03 | 4.00 | <0.03 | 0.25 µg/mL (≈ 0.407 µM)
Cc1nn([C@H](C)[C@@](O)(Cn2cncn2)c2ccc(F)cc2F)c(=O)n1-c1ccc(N2CCN(c3cc(Cl)cc(Cl)c3)CC2)cc1 [Compound 30, 2-{[1R2S/1S2R]-2-(2,4-Difluorophenyl)-2-hydroxy-1-methyl-3-(1H-1,2,4-triazol-1-yl)propyl}-4-{4-[4-(3,5-dichlorophenyl)-1-piperazinyl]phenyl}-3-(2H,4H)-5-methyl-1,2,4-triazolone] | 0.12 | 0.25 | >16 | 1.00 | 8.00 | 1.00 | 0.12 | 0.50 | <0.03 | 1.00 | <0.03 | 0.5 µg/mL (≈ 0.763 µM)
COc1ccccc1N1CCN(c2ccc(-n3c(C)nn(CC(O)(Cn4cncn4)c4ccc(F)cc4F)c3=O)cc2)CC1 (stereo not drawn) [Compound 35, 2-[2-(2,4-Difluorophenyl)-2-hydroxy-3-(1H-1,2,4-triazol-1-yl)propyl]-4-{4-[4-(2-methoxyphenyl)-1-piperazinyl]phenyl}-3-(2H,4H)-5-methyl-1,2,4-triazolone] | 0.80 | 3.12 | >12.5 | 12.50 | 12.50 | 3.12 | 0.20 | 1.56 | <0.02 | 3.12 | <0.02 | 0.2 µg/mL (≈ 0.332 µM)
